Laboratory results published in patent EP2386565A2, “Compounds and methods to inhibit or augment an inflammatory response” (Cambridge Enterprise Ltd., priority 1999, dated 2000).
Non-standard residues stand in square brackets, D forms with d. Residues, ends and D or L forms follow the SMILES beside them. No end group written: not given here.

How the values were obtained:
[1] = molecular target: T1, Duffy Antigen Receptor for Chemokines (DARC) (Homo sapiens, UniProt Q16570); assay: DARC binding: competition with 125I-MCP-1 on red blood cells; settings: for DARC binding (µM): ns = not significantly different from control, >100 = not determined
T1 sequence (Q16570 1-336): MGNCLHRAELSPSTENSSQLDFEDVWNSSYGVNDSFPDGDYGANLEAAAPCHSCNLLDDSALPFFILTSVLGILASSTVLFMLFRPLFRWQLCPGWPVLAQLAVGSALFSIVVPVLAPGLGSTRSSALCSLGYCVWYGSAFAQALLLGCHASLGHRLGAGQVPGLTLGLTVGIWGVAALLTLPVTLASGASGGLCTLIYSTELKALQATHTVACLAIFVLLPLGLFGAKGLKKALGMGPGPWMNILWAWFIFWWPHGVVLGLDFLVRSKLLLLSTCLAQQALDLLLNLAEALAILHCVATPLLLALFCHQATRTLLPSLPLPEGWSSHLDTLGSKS

[2] = system: MCP-1 induced THP-1 migration; assay: THP-1 trans-well migration assay, MCP-1 as chemoattractant; assay type: cell-based, human
Description: (§1) To determine whether an agent inhibits a chemokine-induced activity, such as macrophage recruitment, varying amounts of the agent are mixed with cells in the presence of a known chemoattractant. For example, a range of known concentrations of an agent, e.g., a chemokine peptide, is incubated with a defined number (e.g., 10^4 - […]) of human THP-1 monocyte cells in individual wells of the top compartment of a trans-well plate. Chemokine (such as MCP-1, MIP1α, IL8 or SDF-1α), at a concentration known to cause significant migration of THP-1 cells in the trans-well migration assay, is placed in the lower compartment (Figure 1). Cells are then incubated at 37°C for a period sufficient to allow migration, e.g., 4 hours. After incubation, the cells are gently removed from the top of the filter with a pipette, 20 µl of 20 mM EDTA in simple PBS is added into each top well, and incubated for 20 minutes at 4°C. The filter is carefully flushed with media using a gentle flow, and removed. A standard curve consisting of a two-fold dilution series of THP-1 cells (in 29 µl) is prepared to accurately quantify the number of cells that have migrated. Migrated cells are stained with 3 µl of MTT stock dye solution which is added directly into each well (5 mg/ml in RPMI-1640 without phenol red, Sigma Chemical Co.) and incubated at 37°C for 4 hours. The media is carefully aspirated from each well, and the converted dye is solubilized by 20 µl of DMSO. Absorbance of converted dye is measured at a wavelength of 595 nm using an ELISA plate reader. The number of migrated cells in each well is then determined by interpolation of the standard curve (see also Imai et al.,J. Biol. Chem., 272, 15036 (1997)).
Any method suitable for counting cells can be used, for example, counting with a hemocytometer, incubation of the cells with MTT (see above), or FACS analysis. A negative control assay is also performed, using TGF-β or another non-chemokine chemoattractant (e.g., IL1β or TNFα). To assess whether the agent is cytotoxic, the same concentrations of agent are incubated with THP-1 cells. Agents which 1) are not cytotoxic at levels which inhibit migration, 2) are ineffective at inhibiting the negative control-induced migration, and 3) reduce or inhibit chemokine-induced THP-1 migration, are agents which fall within the scope of the invention.
For this assay, THP-1 cells were maintained at a density of 4 × 10^5 cells per ml in RPMI-1640 supplemented with 10% fetal calf serum + 20 µM 2-mercaptoethanol. Chemotaxis was induced in a 96-well disposable chemotaxis chamber fitted with a 5 µM polycarbonate filter (PVP free, ChemoTX, Neuroprobe Inc., Cabin John). […] The framed filter was aligned with the holes in the corner of the filter frame and placed over the wells.
(§2) Five × 10^4 THP-1 cells in 25 µl of RPMI-1640 were added to the upper compartment. Peptides were dissolved in Milli Q water and then serially diluted in culture medium. In most cases, the serially diluted peptides were added to the upper compartment of the chemotaxis chamber. The chamber was incubated at 37°C in a humidified atmosphere of 5% CO2 for 4 hours.
After incubation, the cells were gently removed from the top of the filter with a pipette, 20 µl of 20 mM EDTA in PBS was added into each top well, and the mixture was incubated for 20 minutes at 4°C. The filter was then carefully flushed with media using a gentle flow, and removed. A standard curve was prepared to accurately quantify the number of THP-1 cells that had migrated. The curve was based on a two-fold dilution series of THP-1 cells (top standard 100,000 cells in 29 µl). Cells which had migrated, and in separate wells, the cells in the standards, were stained with 3 µl of MTT stock solution which was added directly into each well (5 mg/ml in RPMI 1640 without phenol red, Sigma Chemical Co.) and incubated at 37°C for 4 hours. The media was carefully aspirated from each well, and the converted dye was solubilized by 20 µl of DMSO. […]

[3] = system: chemokine-induced THP-1 migration; assay: THP-1 trans-well migration assay, several chemokines together (averages, selectivity, pan-chemokine statements); assay type: cell-based, human; settings: average inhibitory ED50 for THP-1 migration induced by each of the chemokines
Description: To determine whether an agent inhibits a chemokine-induced activity, such as macrophage recruitment, varying amounts of the agent are mixed with cells in the presence of a known chemoattractant. […] Chemokine (such as MCP-1, MIP1α, IL8 or SDF-1α), at a concentration known to cause significant migration of THP-1 cells in the trans-well migration assay, is placed in the lower compartment (Figure 1). Cells are then incubated at 37°C for a period sufficient to allow migration, e.g., 4 hours. After incubation, the cells are gently removed from the top of the filter with a pipette, 20 µl of 20 mM EDTA in simple PBS is added into each top well, and incubated for 20 minutes at 4°C. The filter is carefully flushed with media using a gentle flow, and removed. […] The media is carefully aspirated from each well, and the converted dye is solubilized by 20 µl of DMSO.
Chemotaxis was induced in a 96-well disposable chemotaxis chamber fitted with a 5 µM polycarbonate filter (PVP free, ChemoTX, Neuroprobe Inc., Cabin John). […] The framed filter was aligned with the holes in the corner of the filter frame and placed over the wells.
Peptides were dissolved in Milli Q water and then serially diluted in culture medium. In most cases, the serially diluted peptides were added to the upper compartment of the chemotaxis chamber. The chamber was incubated at 37°C in a humidified atmosphere of 5% CO2 for 4 hours.
After incubation, the cells were gently removed from the top of the filter with a pipette, 20 µl of 20 mM EDTA in PBS was added into each top well, and the mixture was incubated for 20 minutes at 4°C. The filter was then carefully flushed with media using a gentle flow, and removed. […] The curve was based on a two-fold dilution series of THP-1 cells (top standard 100,000 cells in 29 µl). […] The media was carefully aspirated from each well, and the converted dye was solubilized by 20 µl of DMSO.
Representative chemokines included […] ("CC"), MIP-1α and RANTES, and two alpha-chemokines ("CXC"), IL-8 and SDF-1α. Additionally, to determine the specificity ofpeptide 3(1-12)[MCP-1]
The number of pluses is a qualitative indicating of the activity of each peptide in each assay.

[4] = system: SDF-1α induced THP-1 migration; assay: THP-1 trans-well migration assay, SDF-1α as chemoattractant; assay type: cell-based, human; settings: inhibition of THP-1 migration; n.s./ns = not statistically significant
Description: as §1
(§3) For this assay, THP-1 cells were maintained at a density of 4 × 10^5 cells per ml in RPMI-1640 supplemented with 10% fetal calf serum + 20 µM 2-mercaptoethanol. Chemotaxis was induced in a 96-well disposable chemotaxis chamber fitted with a 5 µM polycarbonate filter (PVP free, ChemoTX, Neuroprobe Inc., Cabin John). Twenty-nine µl of chemoattractant (recombinant human chemokine; 50 ng/ml, i.e., 5.9 nM) or control (100 ng/ml TGFβ) was added to the lower compartment of each well. The framed filter was aligned with the holes in the corner of the filter frame and placed over the wells.
as §2
(§4) After incubation, the cells were gently removed from the top of the filter with a pipette, 20 µl of 20 mM EDTA in PBS was added into each top well, and the mixture was incubated for 20 minutes at 4°C. The filter was then carefully flushed with media using a gentle flow, and removed. A standard curve was prepared to accurately quantify the number of THP-1 cells that had migrated. The curve was based on a two-fold dilution series of THP-1 cells (top standard 100,000 cells in 29 µl). Cells which had migrated, and in separate wells, the cells in the standards, were stained with 3 µl of MTT stock solution which was added directly into each well (5 mg/ml in RPMI 1640 without phenol red, Sigma Chemical Co.) and incubated at 37°C for 4 hours. The media was carefully aspirated from each well, and the converted dye was solubilized by 20 µl of DMSO. Absorbance of converted dye was measured at a wavelength of 595 nm using an ELISA plate reader. The number of cells that had migrated in each well was determined by interpolation of the standard curve.
(§5) To investigate the receptor specificity of peptide 3 inhibition, the ED50 was determined for peptide 3(1-12)[MCP-1] (SEQ ID NO:1) inhibition of THP-1 migration induced by chemokines which signal through different receptors than MCP-1 receptors. […]

gp120 = settings: ns = not significant; >100 = ED50 not determined
Description: Binding assays. Cells (either Jurkat T-cells or THP-1 cells) were grown in RPMI 1640 medium supplemented with 10% fetal calf serum, 2 mM glutamine, 20 µM β-mercaptoethanol, 100 U/ml penicillin and 100 µg/ml streptomycin and maintained between 2 × 10^5 and 1 × 10^6 cells/ml. Prior to performing a binding assay, cells were spun out (100 × g; 4 minutes) and washed 3 times in ice-cold PBS. A volume of cell suspension in PBS containing 10^6 cells (for Jurkat cells) or 4 × 10^5 cells (for THP-1 cells) was pipetted into each well of a V-bottom 96-well plate (Gibco BRL) and spun out (100 x g; 4 minutes). Triplicate wells were then resuspended in 100 µl binding medium (PBS pH 7.2 containing 0.1% fatty acid-free bovine serum albumin (BSA)) containing labeled peptide in the presence or absence of various concentrations of unlabeled peptide. The plate was then incubated on ice for 90 minutes. Cells were washed 3 times with 380 µl of ice-cold PBS, spinning out the cells each time (100 × g; 4 minutes), and resuspended in 100 µl binding medium containing streptavidin-peroxidase (Amersham International) at 1:1000 dilution. Cells were incubated for a further 15 minutes on ice to allow labeling of any bound biotinylated peptide, then washed 4 times as above. Cells were then incubated with 200 µl TMB substrate (K-Blue, Bionostics) for 20 minutes at room temperature, and the reaction stopped by addition of 50 µl 2 M HCl. The plate was spun (3,000 × g; 3 minutes) and 200 µl of the colored product was transferred to an empty 96-well ELISA plate and the absorbance at 450 nm determined. For each assay, the absorbance of a blank reaction (no peptide added) was subtracted from all readings before further analysis.
Binding experiments with labeled peptide 2 were performed with 10 nM labeled peptide in each reaction.

[5] = system: MIP1α induced THP-1 migration; assay: THP-1 trans-well migration assay, MIP1α as chemoattractant; assay type: cell-based, human; settings: inhibition of THP-1 migration; n.s./ns = not statistically significant
Description: as §1, §3, §2, §4, §5

With SYRRI [SYRRI] the “DARC binding (µM)” value [1] was “ns”.

For DYFETSSQC, the “DARC binding (µM)” value [1] was “ns”.

With “CLDPKQKWIQC [unlabeled peptide, non-labeled version of the biotinylated peptide]” the “ED50 for inhibition of MCP-1 induced migration” value ([2]; MCP-1 at 100 ng/ml in RPMI 1640 + 10% FCS, 4 hours, 5 µm filter) was “about 9 µM”.

With DYFETSSQCSKPGV [Pep2[MIP1α]] the “DARC binding (µM)” value [1] was “ns”.

CSKPGV [CSKPGV] was tested, and the “DARC binding (µM)” value [1] was “ns”.

In the case of TSSKC [TSSKC], the “DARC binding (µM)” value [1] is reported as “ns”.

With `CC(C)[C@@H](N)C(=O)NCC(=O)N1CCC[C@@H]1C(=O)N[C@H](CCCCN)C(=O)N[C@H](CO)C(=O)N[C@H](CS)C(=O)N[C@H](CCC(N)=O)C(=O)N[C@H](CO)C(=O)N[C@H](CO)C(=O)N[C@@H](C(=O)N[C@H](CCC(=O)O)C(=O)N[C@H](Cc1ccccc1)C(=O)N[C@H](Cc1ccc(O)cc1)C(=O)N[C@H](CC(=O)O)C(=O)O)[C@H](C)O` [vgpkscqsstefyd] (H-[dV]G[dP][dK][dS][dC][dQ][dS][dS][dT][dE][dF][dY][dD]-OH) the “DARC binding (µM)” value [1] was “ns”.

In the case of “CQVWKQKPDAC [LRD-Cys13Leu4Ile11pep3[3-12]]”, the “Average ED50” value [3] is reported as 1000 nM and the “Duffy selectivity / DARC specificity ratio” value ([1]; estimated ka for binding to red blood cells divided by average inhibitory ED50) is reported as 4.59.

For `CC[C@@H](C)[C@@H](NC(=O)[C@H](NC(=O)[C@@H](CO)NC(=O)[C@@H](CO)NC(=O)[C@@H](CCCCN)NC(=O)[C@@H](CS)NC(=O)[C@H]1CCCN1C(=O)[C@@H](CCCCN)NC(=O)[C@@H](CCC(=O)O)NC(=O)[C@@H](C)NC(=O)[C@H](N)C(C)C)[C@H](C)O)C(=O)N[C@H](CCCNC(=N)N)C(=O)N[C@H](CCCNC(=N)N)C(=O)N[C@H](Cc1ccc(O)cc1)C(=O)N[C@H](CO)C(=O)O` [LRD peptide 2(1-15)[MCP-1], Vaekpcksstirrys] (H-[dV][dA][dE][dK][dP][dC][dK][dS][dS][dT][dI][dR][dR][dY][dS]-OH; N-terminus and C-terminus assumed), the “ED50 (µM) versus SDF-1α” value [4] was “ns”, the “ED50 (µM) versus MCP-1” value ([2]; inhibition of THP-1 migration, n.s./ns = not statistically significant) was “ns” and the “gp120 ED-50” value (gp120) was 3 µM. The “ED50 (µM) versus MIP1α” value [5] was “ns”.
